Read-outs that look alike come from different tables or passages of the source.
Experiments:
[1] = target: T1, pancreatic lipase type II (PL) from porcine pancreas (Sus scrofa, UniProt P00591); assay: PL inhibition assay; format: biochemical; settings: for IC50: evaluated range 6.25 µM–1000 µM, mean of n = 3 ± SD
T1 construct: pancreatic lipase type II (PL) from porcine pancreas; purchased Sigma-Aldrich L-SLBD2433V; host or cells: porcine pancreas
T1 sequence (P00591 1-450): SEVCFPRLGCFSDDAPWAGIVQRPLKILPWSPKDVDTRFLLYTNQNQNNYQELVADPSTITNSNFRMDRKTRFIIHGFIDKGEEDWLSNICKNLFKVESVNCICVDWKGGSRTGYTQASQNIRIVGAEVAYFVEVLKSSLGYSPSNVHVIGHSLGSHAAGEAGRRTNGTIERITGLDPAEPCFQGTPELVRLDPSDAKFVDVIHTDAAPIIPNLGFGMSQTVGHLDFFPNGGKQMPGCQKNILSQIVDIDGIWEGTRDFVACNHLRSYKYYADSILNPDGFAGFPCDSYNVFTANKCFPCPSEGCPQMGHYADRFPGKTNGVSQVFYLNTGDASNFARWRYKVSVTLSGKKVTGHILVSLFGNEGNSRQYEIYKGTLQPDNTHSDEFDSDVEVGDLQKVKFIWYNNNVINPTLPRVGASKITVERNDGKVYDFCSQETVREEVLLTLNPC

[2] = target: T1, pancreatic lipase type II (PL) from porcine pancreas; assay: Kinetic study on PL; format: biochemical; settings: for Ki: substrate p-nitrophenyl dodecanoate
PL = settings: cited from earlier work
α-glucosidase = settings: cited from earlier work
[3] = target: T2, α-glucosidase (AG) type I from Saccharomyces cerevisiae (Saccharomyces cerevisiae, UniProt P53341); assay: biochemical
T2 sequence (P53341 whole entry): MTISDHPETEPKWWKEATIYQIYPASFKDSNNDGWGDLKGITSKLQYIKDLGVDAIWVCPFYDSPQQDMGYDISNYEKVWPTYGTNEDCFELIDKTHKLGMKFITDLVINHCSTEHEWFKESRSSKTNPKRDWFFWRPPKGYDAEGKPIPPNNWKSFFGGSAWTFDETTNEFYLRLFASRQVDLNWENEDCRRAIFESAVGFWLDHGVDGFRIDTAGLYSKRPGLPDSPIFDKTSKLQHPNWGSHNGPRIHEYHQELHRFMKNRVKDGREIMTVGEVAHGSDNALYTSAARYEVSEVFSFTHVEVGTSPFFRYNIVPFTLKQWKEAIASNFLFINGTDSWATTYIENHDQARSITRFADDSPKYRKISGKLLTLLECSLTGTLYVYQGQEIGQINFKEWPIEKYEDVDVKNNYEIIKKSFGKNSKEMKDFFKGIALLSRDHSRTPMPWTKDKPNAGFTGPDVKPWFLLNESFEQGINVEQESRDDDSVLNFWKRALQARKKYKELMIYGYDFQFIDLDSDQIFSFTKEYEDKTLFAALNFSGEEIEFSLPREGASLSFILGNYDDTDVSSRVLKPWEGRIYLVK

[4] = target: T3, α-amylase (AA) type VI-B from porcine pancreas (Sus scrofa, UniProt P00690); assay: AA inhibition assay; settings: for IC50: α-Amylase IC50 (µM), evaluated range 6.25 µM–1000 µM, mean of n = 3 ± SD
T3 sequence (P00690 16-511): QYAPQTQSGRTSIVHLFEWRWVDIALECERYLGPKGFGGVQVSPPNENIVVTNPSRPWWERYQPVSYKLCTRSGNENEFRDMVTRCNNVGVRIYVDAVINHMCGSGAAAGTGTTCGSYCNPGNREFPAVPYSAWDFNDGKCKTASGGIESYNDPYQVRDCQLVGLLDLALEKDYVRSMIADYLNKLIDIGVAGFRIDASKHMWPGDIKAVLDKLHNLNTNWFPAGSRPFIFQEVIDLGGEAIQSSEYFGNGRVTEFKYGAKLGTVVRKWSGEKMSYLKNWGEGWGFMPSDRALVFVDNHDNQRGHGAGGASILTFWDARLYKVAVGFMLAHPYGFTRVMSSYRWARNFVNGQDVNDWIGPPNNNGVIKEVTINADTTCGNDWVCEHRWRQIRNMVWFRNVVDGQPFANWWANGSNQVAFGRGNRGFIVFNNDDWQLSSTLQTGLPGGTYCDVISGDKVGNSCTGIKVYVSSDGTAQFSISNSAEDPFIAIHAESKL

[5] = target: T2, α-glucosidase (AG) type I from Saccharomyces cerevisiae; assay: biochemical; format: biochemical; design: purchased Sigma-Aldrich L-SLBX6245
[6] = target: T3, α-amylase (AA) type VI-B from porcine pancreas; assay: Kinetic study on AA; format: biochemical; design: α-amylase (AA) type VI-B from porcine pancreas; purchased Sigma-Aldrich L-SLBP4061V; host or cells: porcine pancreas; settings: for Ki: substrate starch
[7] = target: T2, α-glucosidase (AG) type I from Saccharomyces cerevisiae
α-amylase = settings: cited from earlier work; for % inhibition of AA, previous studies: at a concentration of 100 µM
[8] = ref 17, 37, read-out: IC50 against PL, previous studies
[9] = ref 39, read-out: IC50 against AG, Ryu and collaborators
[10] = α-Glucosidase IC50 (µM), evaluated range 6.25 µM–1000 µM, mean of n = 3 ± SD
[11] = substrate p-nitrophenyl-α-D-glucopyranoside, read-out: α-Glucosidase Ki
[12] = ref 31-34, read-out: IC50 against α-amylase
[13] = ref 31-34, read-out: IC50 against PL
[14] = ref 10, read-out: IC50 against AG, Li and collaborators
[15] = ref 53, read-out: IC50 against AG, Vongsak and collaborators

Compound | IC50 [1] [µM] | type of inhibition against PL (in words) [2] | Ki [2] [µM] | IC50 (α-glucosidase; [9]) [µM] | IC50 [3, 10] [µM] | IC50 [4] [µM] | Ki [5, 11] [µM] | type of inhibition on AA (in words) [6] | Ki [6] [µM] | other results
CC(C)=CCc1c(O)c(CC=C(C)C)c2oc3c(O)cccc3c(=O)c2c1O [Compound 2, 8-deoxygartanin] | 326 ± 7.1 | non-competitive inhibitors | 326 | 21.5 | 248 ± 4 | 166 ± 4.1 | 248 | non-competitive type of inhibitor | 166 | IC50 (PL; [8]): 50 µM
COc1c(O)cc2oc3cc(O)c(CCC(C)C)c(O)c3c(=O)c2c1CCC(C)C [Compound 9, tetrahydro-α-mangostin] | 454.6 ± 1.9 | mixed inhibitors | 405 |  |  | 90.1 ± 6 |  | competitive type inhibitors | 90.1 | IC50 [3]: 34.2 ± 1.8 µM; Ki [5]: 34.2 µM; type of inhibition of AG (in words) [5]: competitive inhibitors
COc1cc2oc3cc(OC)c(OC)c(CC=C(C)C)c3c(=O)c2c(O)c1CC=C(C)C [Compound 6, fuscaxanthone C] | 69.2 ± 4.9 | mixed inhibitors | 69.2 |  | 33.3 ± 4.1 | 164.4 ± 0.9 | 0.3 | competitive type inhibitors | 28.6 | melting point: 118 to 120 °C; type of inhibition of AG (in words) [5]: competitive inhibitors
CC1(C)CCc2c(cc3oc4cc(O)c5c(c4c(=O)c3c2O)CCC(C)(C)O5)O1 [Compound 8, BR-xanthone A] | > 1000 |  |  |  |  | > 1000 |  |  |  | inhibition in the catalytic activity of PL (in words) [1]: did not cause any inhibition; melting point: 160 to 162 °C; inhibition in the catalytic activity of AG (in words) [7]: did not cause any inhibition; IC50 [3]: > 1000 µM; inhibitory activity on AA (in words) [4]: completely lost
CC(C)=CCc1c(O)c(CC=C(C)C)c2oc3c(O)ccc(O)c3c(=O)c2c1O [Compound 3, gartanin] | 135 ± 1.5 | uncompetitive inhibitors | 130 | 10 | 124 ± 8.2 | > 1000 | 124 |  |  | IC50 (PL; [8]): 12 µM
mangoxanthone A [reference compound] |  |  |  |  |  |  |  |  |  | IC50 (α-amylase; [12]): 22.7 µM; IC50 (α-glucosidase; ref 31-34, read-out: IC50 against α-glucosidase): 29.1 µM
CCCCCOc1cc2oc3cc(OCCCCC)c(OC)c(CC=C(C)C)c3c(=O)c2c(O)c1CC=C(C)C [Compound 10, 3,6-di-pentoxy-α-mangostin] | > 1000 |  |  |  | > 1000 | > 1000 |  |  |  | inhibition in the catalytic activity of PL (in words) [1]: did not cause any inhibition; inhibition in the catalytic activity of AG (in words) [7]: did not cause any inhibition
COc1c(O)cc2oc3cc4c(c(O)c3c(=O)c2c1CC=C(C)C)CCC(C)(C)O4 [Compound 7, 3-isomangostin] | > 1000 |  |  |  |  | > 1000 | 37.2 |  |  | inhibition in the catalytic activity of PL (in words) [1]: did not cause any inhibition; IC50 [3]: 37.2 ± 4.1 µM; inhibitory activity on AA (in words) [4]: completely lost
COc1c(O)cc2oc3cc(O)c(CC=C(C)C)c(O)c3c(=O)c2c1CC=C(C)C [Compound 4, α-mangostin] | 50.6 ± 6.7 | non-competitive inhibitors | 50.6 | 5 |  | 318 ± 4.3 |  | competitive type inhibitors | 240 | IC50 (PL; [8]): 47.3 µM; IC50 (PL; [13]): 5 µM; % inhibition of AA, previous studies (α-amylase): 60%; IC50 (α-amylase; ref 17, read-out: IC50 against AA, previous studies): 29.6 µM; IC50 (α-glucosidase; [14]): 10 µM; IC50 (α-glucosidase; [15]): 29.2 µM; IC50 [3]: 31.6 ± 2.6 µM; Ki [5]: 31.6 µM
O=C(c1cc(O)ccc1O)c1c(O)cc(O)cc1O[C@@H]1O[C@H](CO)[C@@H](O)[C@H](O)[C@H]1O [Garcimangophenone B, reference compound] |  |  |  |  |  |  |  |  |  | IC50 (α-amylase; [12]): 12.2 µM
COc1c(O)cc2oc3cc4c(c(O)c3c(=O)c2c1CC=C(C)C)C=CC(C)(C)O4 [Compound 1, 9-hydroxycalabaxanthone] | 138 ± 6.8 | non-competitive inhibitors | 138 | 34.2 | 157 ± 2.1 | > 1000 | 154 |  |  | IC50 (PL; [8]): 12 µM; inhibitory activity on AA (in words) [4]: completely lost; type of inhibition of AG (in words) [5]: uncompetitive inhibitor
Garcimangophenones A [Garcimangophenone A, reference compound] |  |  |  |  |  |  |  |  |  | IC50 (α-amylase; [12]): 9.3 µM
CC(C)=CCc1c(O)cc2oc3cc(O)c(O)c(CC=C(C)C)c3c(=O)c2c1O [Compound 5, γ-mangostin] | 67.1 ± 2.8 |  | 57.2 | 1.5 | 84.7 ± 6.7 | 333 ± 4.5 |  | competitive type inhibitors | 139 | IC50 (PL; [13]): 10 µM; % inhibition of AA, previous studies (α-amylase): 67.3%; IC50 (α-glucosidase; [14]): 5 µM; IC50 (α-glucosidase; [15]): 4.2 µM; Ki [5]: 84.7 µM
COc1cc2oc3c(C)c(OC)c(CC=C(C)C)c(O)c3c(=O)c2c(CC=C(C)C)c1OC [Compound 11, 3,6-di-methoxy-4-methyl-α-mangostin] | 59.4 ± 3.8 | mixed inhibitors | 59.4 |  | > 1000 | > 1000 |  |  |  | inhibition in the catalytic activity of AG (in words) [7]: did not cause any inhibition; inhibitory activity on AA (in words) [4]: completely annuls the activity
